Tests used:
[1] = system: chronically, mildly stressed rats; assay: Chronic mild stress (CMS) model of depression, sucrose consumption; type: in vivo, Male Wistar rats; conditions: stressed rats, n=8, alone or with pyridoxine 10 mg/kg
Text: (§1) Chronic mild stress (CMS), a well-validated preclinical model of depression (Willner, 1997, Validity, reliability and utility of the chronic mild stress model of depression: a 10-year review and evaluation. Psychopharmacology, 134, 319-329, […] et al., 2002, Preclinical models: status of basic research in depression, Soc. Biol. Psych., 52, 503-528), was used to study the effects of combined therapy of SRI with pyridoxine on responder rate and the time to achieve a full drug response ('onset of action') as compared to treatment with SRI alone. Citalopram, as an example of a SRI, was combined with either pyridoxine or vehicle and administered to chronically, mildly stressed rats during a 5-week treatment schedule. Consumption of sucrose solution after fasting, which a commonly accepted measure of anhedonia, i.e. inability to experience pleasure, was chosen for readout, since this is a core symptom of human depressive disorders. Male Wistar rats were brought into the laboratory two months before the start of the experiment for acclimatization and training (see below). During this period, the animals were singly housed and were maintained on a 12-h light/dark cycle (lights on at 08.00) at a constant temperature of 22±2° C. and humidity (55±5%). Food pellets (containing an optimal level of 1 mg/kg pyridoxine) and water were freely available, with the exception of the deprivation procedure as described below. During a period of 5 weeks, rats were trained to consume a 1% sucrose solution. Training consisted of ten 1-h baseline tests (twice weekly) in which sucrose was presented, in the home cage, following 14 h of food and water deprivation. Sucrose intake was measured by weighing pre-weighed bottles containing the sucrose solution, at the end of the test. Subsequently, sucrose consumption was monitored, under similar conditions, at weekly intervals throughout the whole experiment. […] Mean values in sucrose consumption during stress and subsequently the 5 weeks of vehicle and drug treatment in control and stressed animals were calculated. […]

[2] = as above; type: in vivo, Male Wistar rats; conditions: unstressed control rats; citalopram 2.5 or 5.0 mg/kg, alone or with pyridoxine 10 mg/kg, i.p. daily, 5 weeks
Text: as §1

Q: What does the source list for `CN(C)CCCC1(c2ccc(F)cc2)OCc2cc(C#N)ccc21` (stereo not drawn) [citalopram]?
A: responder rate (rats exhibiting increased sucrose intake) ([1]; citalopram 2.5 mg/kg i.p. daily for 5 weeks): 50%; responder rate (rats exhibiting increased sucrose intake) ([1]; citalopram 5.0 mg/kg i.p. daily for 5 weeks): 62.5%; effect on sucrose intake in control animals [2]: no significant effect
